Measured values published in patent US5248807A, “Triterpene derivatives” (Shionogi & Co., Ltd., priority 1991, dated 1993).

Key:
[1] = test system: endothelin-1-induced increase in cytosolic calcium ion concentration (rat aortic smooth muscle A7r5 cells); assay: Inhibition of the endothelin-1-induced increase in cytosolic calcium ion concentration in A7r5 cells; type: cell-based; settings: fura-2, 1 min pre-incubation, 10^-8 M endothelin-1, read-out: IC50 (concentration to inhibit the endothelin-1-induced increase in cytosolic calcium ion by 50%)
Procedure: Inhibition of the endothelin-1-induced increase in cytosolic calcium ion concentration
To a cuvette was put the suspension of rat aortic smooth muscle A7r5 cells, obtained from Dainippon Pharmaceutical Co., Ltd., loaded with 2 μM of fura-2 (Dojindo), then the change in fluorescence intensity was determined with a calcium analizer (CAF100, Nippon Bunkou Co.). In the determination,the exciting was performed at 340 nm and 380 nm and the recording at 510 nm. Calculation for the concentration of cytosolic calcium ion was performed according to the method of Grynkiewicz et al. (J.Biol.Chem., 260, P. 3440-3450, 1985). The experiment was performed as follows: at first, the present compounds were added to the cell suspension in the cuvette and the mixture was incubated for 1 min. Then, 10^-8 M of endothelin-1 was added thereto and the change in fluorescence intensity was determined. The concentration of the present compounds to inhibit the endothelin-1-induced increase in cytosolic calcium ion by 50%, (i.e., IC50) is shown at Table 2.

[2] = target: T1, endothelin-receptor (membrane fraction of porcine heart) (Sus scrofa, UniProt Q29010); assay: Inhibitory effect on the binding of 125I-endothelin-1 to the receptor, porcine heart membrane; settings: 25 pM 125I-endothelin-1, 37° C., 1 hour, read-out: IC50 (concentration to inhibit 50% of the specific binding of 125I-endothelin-1)
T1 construct: Membrane fractions were prepared from porcine and rat hearts; from tissue; host or cells: porcine heart, membrane fraction
T1 sequence (Q29010 21-427): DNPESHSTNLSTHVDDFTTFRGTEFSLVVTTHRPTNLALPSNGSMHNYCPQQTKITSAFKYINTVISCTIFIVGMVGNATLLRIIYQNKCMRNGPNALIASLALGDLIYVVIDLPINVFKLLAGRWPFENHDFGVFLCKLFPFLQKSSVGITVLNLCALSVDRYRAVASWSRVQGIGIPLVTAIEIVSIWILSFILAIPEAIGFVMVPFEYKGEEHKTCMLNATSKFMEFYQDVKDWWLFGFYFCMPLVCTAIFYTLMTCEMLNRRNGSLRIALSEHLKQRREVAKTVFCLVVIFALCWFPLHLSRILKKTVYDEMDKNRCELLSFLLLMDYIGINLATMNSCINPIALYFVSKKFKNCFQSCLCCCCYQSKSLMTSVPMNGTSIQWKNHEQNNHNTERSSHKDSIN
Procedure: (§1) Inhibitory Effect on the Binding of ^125 I-Endothelin-1 to the Receptor
(§2) Membrane fractions were prepared from porcine and rat hearts, rat thoracic aorta, and the media of porcine aorta. Each membrane fraction was incubated, in the presence or absence of the present compound 1 with 25 pM of ^125 I-endothelin-1 at 37° C. for 1 hour. After the reaction was completed, ^125 I-endothelin-1 bound to each membrane fraction was separated by rapid filtration through glass fiber filters and its radioactivity was determined with a gamma-counter. The specific binding was calculated by subtracting, from the total binding, the non-specific binding which was determined in the presence of 10^-7 M of non-radioactive endothelin-1. The concentration of the present compound 1 to inhibit 50% of the specific binding (i.e., IC50) is shown at Table 1.

[3] = target: T2, endothelin-receptor (membrane fraction of the media from porcine aorta) (Sus scrofa, UniProt Q29010); assay: Inhibitory effect on the binding of 125I-endothelin-1 to the receptor, media of porcine aorta membrane; settings: 25 pM 125I-endothelin-1, 37° C., 1 hour, read-out: IC50 (concentration to inhibit 50% of the specific binding of 125I-endothelin-1)
T2 construct: Membrane fractions were prepared from porcine and rat hearts, rat thoracic aorta, and the media of porcine aorta; from tissue; host or cells: media of porcine aorta, membrane fraction
T2 sequence (Q29010 21-427): T1 sequence (Q29010 21-427)
Procedure: as §1, §2

[4] = target: T3, endothelin-receptor (membrane fraction of rat aorta) (Rattus norvegicus, UniProt P26684); assay: Inhibitory effect on the binding of 125I-endothelin-1 to the receptor, rat aorta membrane; settings: 25 pM 125I-endothelin-1, 37° C., 1 hour, read-out: IC50 (concentration to inhibit 50% of the specific binding of 125I-endothelin-1)
T3 construct: Membrane fractions were prepared from porcine and rat hearts, rat thoracic aorta, and the media of porcine aorta; from tissue; host or cells: rat thoracic aorta, membrane fraction
T3 sequence (P26684 21-426): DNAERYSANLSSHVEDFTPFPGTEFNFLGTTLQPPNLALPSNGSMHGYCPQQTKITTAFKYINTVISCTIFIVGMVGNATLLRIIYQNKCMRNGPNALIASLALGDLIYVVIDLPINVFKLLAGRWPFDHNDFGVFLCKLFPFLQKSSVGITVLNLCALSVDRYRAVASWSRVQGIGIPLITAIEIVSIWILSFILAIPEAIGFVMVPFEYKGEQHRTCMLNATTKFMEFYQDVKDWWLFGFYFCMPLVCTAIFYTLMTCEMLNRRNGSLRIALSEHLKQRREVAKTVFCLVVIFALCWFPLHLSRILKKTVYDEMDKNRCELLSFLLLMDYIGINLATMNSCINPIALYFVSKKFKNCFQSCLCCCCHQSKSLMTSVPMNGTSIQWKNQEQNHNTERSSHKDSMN
Procedure: as §1, §2

SMILES | IC50 [1] [nM] | also measured
CC1(C)CCC2(C(=O)O)CCC3(COC(=O)C=Cc4ccccc4)C(=CCC4C5(C)CCC(=O)C(C)(C)C5CCC43C)C2C1 (stereo not drawn) [Compound 3] | 18 | –
CC(=O)Oc1cccc(C=CC(=O)OCC23CCC4(C(=O)O)CCC(C)(C)CC4C2=CCC2C4(C)CCC(=O)C(C)(C)C4CCC23C)c1 (stereo not drawn) [Compound 4] | 34 | –
CC1(C)CCC2(C(=O)O)CCC3(COC(=O)C=Cc4ccccn4)C(=CCC4C5(C)CCC(=O)C(C)(C)C5CCC43C)C2C1 (stereo not drawn) [Compound 13] | 25 | –
CC1(C)CCC2(C(=O)O)CCC3(COC(=O)C=Cc4ccc(O)c(O)c4)C(=CCC4C5(C)CCC(=O)C(C)(C)C5CCC43C)C2C1 (stereo not drawn) [Compound 1] | 11 | IC50 [2]: 83 nM; IC50 [3]: 32 nM; IC50 [4]: 56 nM
CC1(C)CCC2(C(=O)O)CCC3(COC(=O)C=Cc4ccc(O)cc4)C(=CCC4C5(C)CCC(=O)C(C)(C)C5CCC43C)C2C1 (stereo not drawn) [Compound 11] | 27 | –
CC(=O)Oc1ccc(C=CC(=O)OCC23CCC4(C(=O)O)CCC(C)(C)CC4C2=CCC2C4(C)CCC(=O)C(C)(C)C4CCC23C)cc1 (stereo not drawn) [Compound 10] | 180 | –
CC(=O)Oc1cc(C=CC(=O)OCC23CCC4(C(=O)O)CCC(C)(C)CC4C2=CCC2C4(C)CCC(=O)C(C)(C)C4CCC23C)cc(OC(C)=O)c1 (stereo not drawn) [Compound 8] | 260 | –
CC1(C)CCC2(C(=O)O)CCC3(COC(=O)C=Cc4cc(O)cc(O)c4)C(=CCC4C5(C)CCC(=O)C(C)(C)C5CCC43C)C2C1 (stereo not drawn) [Compound 9] | 4.5 | –
CC1(C)CCC2(C(=O)O)CCC3(COC(=O)C=Cc4cccc(OS(=O)(=O)O)c4)C(=CCC4C5(C)CCC(=O)C(C)(C)C5CCC43C)C2C1 (stereo not drawn) [Compound 6] | 14 | –
CC1(C)CCC2(C(=O)O)CCC3(COC(=O)C=Cc4ccccc4O)C(=CCC4C5(C)CCC(=O)C(C)(C)C5CCC43C)C2C1 (stereo not drawn) [Compound 12] | 27 | –
CC1(C)CCC2(C(=O)O)CCC3(COC(=O)C=Cc4cccc(OC(=O)CCC(=O)O)c4)C(=CCC4C5(C)CCC(=O)C(C)(C)C5CCC43C)C2C1 (stereo not drawn) [Compound 7] | 9 | –
CC1(C)CCC2(C(=O)O)CCC3(COC(=O)C=Cc4cccc(O)c4)C(=CCC4C5(C)CCC(=O)C(C)(C)C5CCC43C)C2C1 (stereo not drawn) [Compound 5] | 11 | –
